Reference: ChEMBL document CHEMBL3639292, “17-hydroxy-19-nor-21-carboxylic acid-steroid Œ=-lactone derivative, use thereof, and medicament containing the derivative” (2015)

Target: T1, Androgen receptor (Homo sapiens, UniProt P10275)
T1 sequence (P10275 whole entry): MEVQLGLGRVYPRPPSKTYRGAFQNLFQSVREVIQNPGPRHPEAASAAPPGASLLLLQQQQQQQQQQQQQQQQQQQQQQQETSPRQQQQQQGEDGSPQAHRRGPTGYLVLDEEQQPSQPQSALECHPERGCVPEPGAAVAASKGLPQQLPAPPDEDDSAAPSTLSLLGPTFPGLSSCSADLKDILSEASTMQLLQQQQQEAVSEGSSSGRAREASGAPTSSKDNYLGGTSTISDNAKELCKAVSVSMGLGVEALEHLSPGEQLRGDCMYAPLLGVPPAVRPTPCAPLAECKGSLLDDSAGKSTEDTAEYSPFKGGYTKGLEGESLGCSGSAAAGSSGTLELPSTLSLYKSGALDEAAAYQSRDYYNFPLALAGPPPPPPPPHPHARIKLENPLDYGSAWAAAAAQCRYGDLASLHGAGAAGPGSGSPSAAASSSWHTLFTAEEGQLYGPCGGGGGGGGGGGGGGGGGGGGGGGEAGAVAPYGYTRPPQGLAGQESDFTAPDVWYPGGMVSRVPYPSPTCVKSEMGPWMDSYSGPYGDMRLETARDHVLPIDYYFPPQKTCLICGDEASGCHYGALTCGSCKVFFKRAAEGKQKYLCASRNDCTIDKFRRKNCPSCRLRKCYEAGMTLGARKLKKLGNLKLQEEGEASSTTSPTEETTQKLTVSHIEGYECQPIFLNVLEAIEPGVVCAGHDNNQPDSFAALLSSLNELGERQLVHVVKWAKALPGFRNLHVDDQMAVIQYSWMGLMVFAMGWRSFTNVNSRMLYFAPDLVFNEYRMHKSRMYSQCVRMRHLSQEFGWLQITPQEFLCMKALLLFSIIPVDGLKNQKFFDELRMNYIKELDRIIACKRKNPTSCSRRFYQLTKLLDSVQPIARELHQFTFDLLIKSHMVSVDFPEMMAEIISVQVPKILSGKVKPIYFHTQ
Assay: Binding Assay: The test was carried out as in 1., with the following modifications: cytosol from androgen receptor-expressing insect cells (Hi5) was used, and the reference substance was 3H-testosterone.The results of the binding tests and the ratio of the competition factors CF(PR) and CR(MR) are shown in Table 1, which for comparison also shows receptor binding values of drospirenone as …

Row | SMILES | IC50
1 | CC[C@]12CC[C@H]3[C@@H](CC4(CC4)C4=CC(=O)CC[C@@H]43)[C@@H]1CC[C@@]21C=CC(=O)O1 | 0.042 µM
2 | C[C@]12CC[C@H]3[C@@H](CC4(CC4)C4=CC(=O)CC[C@@H]43)[C@@H]1CC[C@@]21C=CC(=O)O1 | 0.037 µM
